Molecules are shown by their SMILES.

The target of one assay is T1, human TREK-1 (Homo sapiens, UniProt O95069).
T1 construct: expressed in transfected cells
T1 sequence (O95069 1-426): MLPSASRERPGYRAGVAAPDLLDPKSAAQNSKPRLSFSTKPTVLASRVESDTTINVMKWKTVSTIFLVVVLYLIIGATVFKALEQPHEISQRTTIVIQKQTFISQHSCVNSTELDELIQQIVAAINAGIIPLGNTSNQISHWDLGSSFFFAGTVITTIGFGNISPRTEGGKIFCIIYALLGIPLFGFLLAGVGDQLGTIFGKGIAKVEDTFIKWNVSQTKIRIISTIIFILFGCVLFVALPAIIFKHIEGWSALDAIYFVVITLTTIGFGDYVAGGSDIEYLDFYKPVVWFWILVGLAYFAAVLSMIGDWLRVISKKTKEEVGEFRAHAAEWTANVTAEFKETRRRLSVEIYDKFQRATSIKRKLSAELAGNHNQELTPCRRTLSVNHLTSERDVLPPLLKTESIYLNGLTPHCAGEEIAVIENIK
Kind of assay: TREK-1 Thallium (Tl+) flux assay, Method 1. The assay is classed as cell-based. The note with it: TREK-1 Thallium (Tl+) flux assay; no *^12 (Method 2) mark on these rows. Summed up:
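CHO-K1 cells stably expressing human TREK-1, loaded with Thallos dye, received compound or 0.3% DMSO vehicle for 10 min before thallium stimulus buffer. ΔRatio is fluorescence at 25 s after thallium addition over mean pre-addition fluorescence; % inhibition calculated from it.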
Broadly, the IC50 is the midpoint of a concentration-inhibition curve. As to `Cc1cc(C#Cc2cccs2)cnc1NC(=O)c1c(Cl)cnn1[C@H]1C[C@@H]2CN(C(=O)C(C)(C)C)C[C@@H]2C1` [Compound 354, 4-chloro-1-[(3aR,5s,6aS)-2-(2,2-dimethylpropanoyl)octahydrocyclopenta [c]pyrrol-5-yl]-N-{3-methyl-5-[(thiophen-2-yl)ethynyl]pyridin-2-yl}-1H-pyrazole-5-carboxamide], the IC50 was 850 nM.
Consider `CC(C)(C)OC(=O)N1CCC(n2ncc(Cl)c2C(=O)Nc2ncc(C#Cc3ccccc3)cc2F)C1` (stereo not drawn) [Compound 237, tert-butyl 3-(4-chloro-5-((3-fluoro-5-(phenylethynyl)pyridin-2-yl)carbamoyl)-1H-pyrazol-1-yl)pyrrolidine-1-carboxylate], for which the IC50 stood at 370 nM.
Compound `Cc1cc(C#Cc2ccccc2)cnc1NC(=O)c1c(Cl)cnn1[C@@H]1CC[C@@H](NC(=O)OC(C)(C)C)C1` [Compound 291, tert-butyl ((1R,3R)-3-(4-chloro-5-((3-methyl-5-(phenylethynyl)pyridin-2-yl)carbamoyl)-1H-pyrazol-1-yl)cyclopentyl)carbamate] returned an IC50 of 520 nM.
In the case of `Cc1cc(C#Cc2ccccc2)cnc1NC(=O)c1c(Cl)cnn1[C@H]1CC[C@@H](NC(=O)OC(C)(C)C)CC1` [Compound 309, Tert-butyl (cis-4-(4-chloro-5-((3-methyl-5-(phenylethynyl)pyridin-2-yl)carbamoyl)-1H-pyrazol-1-yl)cyclohexyl)carbamate], the IC50 amounted to 580 nM.
Still for that read-out and setting: next, `COc1ccc(-c2cnc(NC(=O)c3c(Cl)cnn3C3CCN(C(=O)OC(C)(C)C)CC3)c(C)c2)cc1OC` [Compound 384, tert-butyl 4-(4-chloro-5-((5-(3,4-dimethoxyphenyl)-3-methylpyridin-2-yl)carbamoyl)-1H-pyrazol-1-yl)piperidine-1-carboxylate]: 740 nM.
On the same count and under the same terms, the value for `CC(=O)N1CCC(n2ncc(Cl)c2C(=O)Nc2ccc(OCc3ccccc3)cc2C)CC1` [Compound 388, 1-(1-acetylpiperidin-4-yl)-N-(4-(benzyloxy)-2-methylphenyl)-4-chloro-1H-pyrazole-5-carboxamide] was 1050 nM.

Still in this assay, the particulars now being: TREK-1 Thallium (Tl+) flux assay; values without footnote *12 are Method 1.
Consider `CC(=O)N1CCC(Cn2ncc(Cl)c2C(=O)Nc2ncc(C#Cc3cccs3)cc2C)CC1` [Compound 123, 1-((1-acetylpiperidin-4-yl)methyl)-4-chloro-N-(3-methyl-5-(thiophen-2-ylethynyl)pyridin-2-yl)-1H-pyrazole-5-carboxamide], for which the IC50 was 210 nM.
On to `O=C(Nc1ncc(C#Cc2ccccc2)cc1F)c1c(Cl)cnn1-c1ccc2c(c1)OCCO2` [Compound 189, 4-chloro-1-(2,3-dihydrobenzo[b][1,4]dioxin-6-yl)-N-(3-fluoro-5-(phenylethynyl)pyridin-2-yl)-1H-pyrazole-5-carboxamide], for which the concentration for half-maximal inhibition (IC50) is 290 nM.
`Cc1cc(C#Cc2ccccc2)cnc1NC(=O)c1c(Cl)cnn1C1CCN(C(=O)C2CC2)CC1` [Compound 149, 4-chloro-1-(1-(cyclopropanecarbonyl)piperidin-4-yl)-N-(3-methyl-5-(phenylethynyl)pyridin-2-yl)-1H-pyrazole-5-carboxamide] showed a concentration for half-maximal inhibition (IC50) of 240 nM.
The same measure, in the same setting: the value for `CC(=O)N1C[C@H]2C[C@H](n3ncc(Cl)c3C(=O)Nc3ncc(C#Cc4cccs4)cc3C)C[C@H]2C1` [Compound 110, 1-[(3aR,5s,6aS)-2-acetyloctahydrocyclopenta[c]pyrrol-5-yl]-4-chloro-N-{3-methyl-5-[(thiophen-2-yl)ethynyl]pyridin-2-yl}-1H-pyrazole-5-carboxamide] was 200 nM; that for `CC(C)C(=O)N1CC2(CC(n3ncc(Cl)c3C(=O)Nc3ncc(C#Cc4ccccc4)cc3F)C2)C1` [Compound 182, 4-chloro-N-(3-fluoro-5-(phenylethynyl)pyridin-2-yl)-1-(2-isobutyryl-2-azaspiro[3.3]heptan-6-yl)-1H-pyrazole-5-carboxamide] was 280 nM.
`O=C(Nc1c(F)cc(C#Cc2ccccc2)cc1F)c1c(Cl)cnn1C[C@@H]1CCOC1` [Compound 161] came in with a concentration for half-maximal inhibition (IC50) of 260 nM.

These data come from patent publication US20240182445A1 (ONO PHARMACEUTICAL CO., LTD., priority 2019, published 2024).
